Measured values taken from patent US11866405B2, “Substituted indazoles as IRAK4 inhibitors” (AstraZeneca AB, priority 2020, dated 2024).

Experiments:
[1] = biological target: IRAK4 auto-phosphorylation (Homo sapiens (Human), UniProt Q9NWZ3); assay: IRAK4 phosphorylation cell assay in IL-1β-stimulated Karpas-299 cells; format: cell-based; conditions: IL-1β 22.7 ng/mL, pIRAK4 (Thr345/Ser346), geometric mean of at least 2 experiments
Method: IRAK4 Phosphorylation Cell Assay
The activation of IRAK4 by TLR or IL-1R ligands leads to IRAK4 auto-phosphorylation, which can be prevented by IRAK4 kinase inhibitors. The effect of IRAK4 inhibitor compounds on IRAK4 auto-phosphorylation was assessed in IL-1β-stimulated Karpas-299 cells as a measurement of cellular potency. Karpas-299 cells were cultured in RPMI 1640 (Gibco 61870-010) containing 10% FBS (Gibco #10270). Cells were plated at 2×10^4 cells per well in poly-D-lysine coated 384 well plates (Corning #356663) to which compounds had been added at various concentrations (10 point half log dose response with a final top concentration of 30 μM) using an Echo 655 (Labcyte Inc). Cells were centrifuged (250 g, 4 mins), incubated at 37° C. for 1 h, then stimulated with 22.7 ng/mL recombinant IL-1β (R&D Systems, #201-LB-025) at 37° C. for 10 mins, followed by fixation in 4% paraformaldehyde for 10 mins and permeabilization in ice-cold 70% MeOH for 30 mins. Cells were washed twice with phosphate-buffered saline (PBS) on a BlueWasher (BlueCatBio) then blocked with PBS containing 10% FBS for 20 mins. Blocking solution was removed with a BlueWasher and cells were stained with anti-pIRAK4 (Thr345/Ser346) (CST, #11927, 1:400) in blocking buffer with 0.05% Tween-20 for 1 h, then washed twice with PBS containing 0.05% Tween-20 on a BlueWasher, followed by staining with a Alexa 647-conjugated secondary anti-rabbit IgG antibody (CST, #4414, 1:2,000) and Hoechst 33342 (Sigma, 1:2,000) in blocking buffer with 0.05% Tween-20 for 30 mins. Finally, the cells were washed twice with PBS containing 0.05% Tween-20 and imaged on an ImageXpress Micro (Molecular Devices) with a 10× air objective using the appropriate filters. Images were analysed in Columbus (PerkinElmer) and the fluorescence intensity per cell from the secondary antibody was quantified. The quantified data were analysed in Genedata Screener 15 (Genedata AG). […] IC50 values are the geometric mean of at least 2 experiments.

[2] = biological target: human recombinant IRAK4 protein (Homo sapiens (Human), UniProt Q9NWZ3); assay: IRAK4 enzyme assay (mass spectrometry readout); format: biochemical; conditions: 3 mM ATP, 0.2 nM enzyme; geometric mean of at least n=2, * single experiment
human recombinant IRAK4 protein, sequence (Q9NWZ3 whole entry): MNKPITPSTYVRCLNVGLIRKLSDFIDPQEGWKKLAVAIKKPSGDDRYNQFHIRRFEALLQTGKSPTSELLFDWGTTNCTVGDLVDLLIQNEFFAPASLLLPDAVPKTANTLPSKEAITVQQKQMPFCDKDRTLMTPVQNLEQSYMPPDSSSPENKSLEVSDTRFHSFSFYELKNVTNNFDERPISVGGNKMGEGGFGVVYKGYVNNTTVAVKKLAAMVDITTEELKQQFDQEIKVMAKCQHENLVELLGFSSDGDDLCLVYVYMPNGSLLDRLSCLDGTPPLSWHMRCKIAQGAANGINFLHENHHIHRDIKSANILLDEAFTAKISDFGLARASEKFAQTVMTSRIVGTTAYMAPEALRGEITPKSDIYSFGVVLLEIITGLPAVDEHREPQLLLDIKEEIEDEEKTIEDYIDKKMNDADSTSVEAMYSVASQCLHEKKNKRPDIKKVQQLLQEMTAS
Method: Potency of IRAK4 Inhibitor Compounds in IRAK4 Enzyme Assay
The inhibitory activity of compounds against IRAK4 were determined in an enzymatic assay using mass spectrometry readout. Ten point half-log compound concentration response curves, with a top concentration of 1 μM or 10 μM, were generated from 10 mM stocks of compound solubilized in DMSO using an Echo 655 (Labcyte Inc) and added to 384 well assay plates (Greiner #781280). To the assay plates, 10 μL of human recombinant IRAK4 protein (Life Technologies #PV4002) diluted to a final concentration of 0.2 nM in assay buffer (50 mM Tris-HCl pH 7.4, 10 mM MgCl, 5 mM glutathione, 0.01% BSA, 3 mM ATP) was added. The enzyme was incubated with the compounds at room temperature for 15 minutes before a peptide substrate ([…], Innovagen custom synthesis, 10 mM in DMSO) was added to each well to a final concentration of 10 μM using an Echo 655 (Labcyte Inc). After two hours at room temperature, the reaction was stopped with 90 μL of 0.4% formic acid (Merck #33015). The unphosphorylated and phosphorylated peptide were measured by LC-MS/MS on a Waters TQ-S mass spectrometer. Peaks were integrated using the TargetLynx software and the ratios between phosphorylated and unphosphorylated peptides were calculated. Curves were fitted and compound potencies determined in Genedata Screener 15 (Genedata AG). Data presented are the geometric mean of at least n=2, or as denoted by an * are obtained from a single experiment.

IRAK4 auto-phosphorylation, sequence (Q9NWZ3 whole entry): as above

IC50 [1]	IC50 [2]	SMILES
52 nM	2.5 nM	COc1cc2nn([C@H]3CC[C@H](O)[C@H](C)C3)cc2cc1C(=O)Nc1cnc2cccnn12 (single isomer, unassigned) [Example 78]
21 nM	1 nM	COc1cc2nn([C@H]3CC[C@H](O)[C@H](C)C3)cc2cc1C(=O)Nc1cnc2cccnn12 (single isomer, unassigned) [Example 79]
82 nM	5.1 nM	COc1cc2nn([C@H]3CC[C@H](O)[C@@H](C)C3)cc2cc1C(=O)Nc1cnc2cccnn12 (single isomer, unassigned) [Example 81]
27 nM	2.4 nM	COc1cc2nn([C@@H]3CC[C@H](O)[C@@H](C)C3)cc2cc1C(=O)Nc1cnc2cccnn12 (single isomer, unassigned) [Example 82]
34 nM	2.1 nM	COc1cc2nn([C@@H]3CC[C@H](O)[C@@H](C)C3)cc2cc1C(=O)Nc1cnc2cccnn12 (single isomer, unassigned) [Example 83]
25 nM	1.1 nM	COc1cc2nn([C@H]3CCC[C@@H](O)[C@H]3C)cc2cc1C(=O)Nc1cnc2cccnn12 (single isomer, unassigned) [Example 104]
96 nM	6.5 nM	COc1cc2nn([C@H]3CCC[C@@H](O)[C@H]3C)cc2cc1C(=O)Nc1cnc2cccnn12 (single isomer, unassigned) [Example 105]
16 nM	0.4 nM	COc1cc2nn([C@H]3CCC[C@@H](O)[C@@H]3C)cc2cc1C(=O)Nc1cnc2cccnn12 (single isomer, unassigned) [Example 108]
15 nM	0.6 nM	COc1cc2nn([C@H]3CCC[C@@H](O)[C@@H]3C)cc2cc1C(=O)Nc1cnc2cccnn12 (single isomer, unassigned) [Example 109]
199 nM	13.9 nM	COc1cc2nn(C3CCC4(CC3)COCC(=O)N4C)cc2cc1C(=O)Nc1cnn2cccnc12 (single isomer, unassigned) [Example 118, 6-Methoxy-2-(1-methyl-2-oxo-4-oxa-1-azaspiro[5.5]undecan-9-yl)-N-(pyrazolo[1,5-a]pyrimidin-3-yl)-2H-indazole-5-carboxamide]
16 nM	0.5 nM	COc1cc2nn(C3CCC4(CC3)COCC(=O)N4C)cc2cc1C(=O)Nc1cnn2cccnc12 (single isomer, unassigned) [Example 119, 6-Methoxy-2-(1-methyl-2-oxo-4-oxa-1-azaspiro[5.5]undecan-9-yl)-N-(pyrazolo[1,5-a]pyrimidin-3-yl)-2H-indazole-5-carboxamide]

More lines, now with the values behind:

SMILES	IC50 [1]	IC50 [2]
COc1cc2nn([C@H]3CCC[C@@](C)(O)C3)cc2cc1C(=O)Nc1cnn2cccnc12 (single isomer, unassigned) [Example 51]	46 nM	2.8 nM
COc1cc2nn([C@H]3CCC[C@](C)(O)C3)cc2cc1C(=O)Nc1cnn2cccnc12 (single isomer, unassigned) [Example 52]	96 nM	5.5 nM
COc1cc2nn([C@H]3CCC[C@](C)(O)C3)cc2cc1C(=O)Nc1cnn2cccnc12 (single isomer, unassigned) [Example 53]	49 nM	3.5 nM
COc1cc2nn([C@@H]3CCC(N(C)C(C)=O)C[C@H]3C)cc2cc1C(=O)Nc1cnn2cccnc12 (single isomer, unassigned) [Example 60]	21 nM	0.8 nM
COc1cc2nn([C@@H]3CCC(N(C)C(C)=O)C[C@H]3C)cc2cc1C(=O)Nc1cnn2cccnc12 (single isomer, unassigned) [Example 61]	238 nM	24.2 nM
COc1cc2nn([C@H]3CCC(N(C)C(C)=O)C[C@@H]3C)cc2cc1C(=O)Nc1cnn2cccnc12 (single isomer, unassigned) [Example 62, 6-methoxy-2-((1S,2S,4R*)-2-methyl-4-(N-methylacetamido)cyclohexyl)-N-(pyrazolo[1,5-a]pyrimidin-3-yl)-2H-indazole-5-carboxamide]	185 nM	16 nM
COc1cc2nn([C@H]3CCC(N(C)C(C)=O)C[C@@H]3C)cc2cc1C(=O)Nc1cnn2cccnc12 (single isomer, unassigned) [Example 63, 6-methoxy-2-((1S,2S,4R*)-2-methyl-4-(N-methylacetamido)cyclohexyl)-N-(pyrazolo[1,5-a]pyrimidin-3-yl)-2H-indazole-5-carboxamide]	338 nM	46.8 nM
COc1cc2nn(C3CCC4(CC3)COC(=O)N4C)cc2cc1C(=O)Nc1cnc2cccnn12 (single isomer, unassigned) [Example 74, N-(Imidazo[1,2-b]pyridazin-3-yl)-6-methoxy-2-(1-methyl-2-oxo-3-oxa-1-azaspiro[4.5]decan-8-yl)-2H-indazole-5-carboxamide]	79 nM	2.7 nM
COc1cc2nn(C3CCC4(CC3)COC(=O)N4C)cc2cc1C(=O)Nc1cnc2cccnn12 (single isomer, unassigned) [Example 75, N-(Imidazo[1,2-b]pyridazin-3-yl)-6-methoxy-2-(1-methyl-2-oxo-3-oxa-1-azaspiro[4.5]decan-8-yl)-2H-indazole-5-carboxamide]	12 nM	0.3 nM
COc1cc2nn([C@@H]3CC[C@H](O)[C@H](C)C3)cc2cc1C(=O)Nc1cnc2cccnn12 (single isomer, unassigned) [Example 77]	14 nM	0.7 nM
COc1cc2nn([C@H]3CC[C@@]4(CCC(=O)N4C)CC3)cc2cc1C(=O)Nc1cnc2cccnn12 [Example 1, N-(Imidazo[1,2-b]pyridazin-3-yl)-6-methoxy-2-((5r,8r)-1-methyl-2-oxo-1-azaspiro[4.5]decan-8-yl)-2H-indazole-5-carboxamide]	5 nM	0.1 nM
COc1cc2nn([C@H]3CC[C@]4(CCC(=O)N4C)CC3)cc2cc1C(=O)Nc1cnc2cccnn12 [Example 2, N-(Imidazo[1,2-b]pyridazin-3-yl)-6-methoxy-2-((5s,8s)-1-methyl-2-oxo-1-azaspiro[4.5]decan-8-yl)-2H-indazole-5-carboxamide]	124 nM	3.4 nM
COc1cc2nn([C@H]3CC[C@@H](C(=O)N(C)C)CC3)cc2cc1C(=O)Nc1cnc2cccnn12 [Example 3, 2-((1s,4s)-4-(Dimethylcarbamoyl)cyclohexyl)-N-(imidazo[1,2-b]pyridazin-3-yl)-6-methoxy-2H-indazole-5-carboxamide]	272 nM	8.5 nM
COc1cc2nn([C@H]3CC[C@H](C(=O)N(C)C)CC3)cc2cc1C(=O)Nc1cnc2cccnn12 [Example 4, 2-((1r,4r)-4-(Dimethylcarbamoyl)cyclohexyl)-N-(imidazo[1,2-b]pyridazin-3-yl)-6-methoxy-2H-indazole-5-carboxamide]	17 nM	< 0.3 nM
COc1cc2nn([C@H]3CC[C@@H](N(C)C(C)=O)CC3)cc2cc1C(=O)Nc1cnc2cccnn12 [Example 22, N-(Imidazo[1,2-b]pyridazin-3-yl)-6-methoxy-2-((1s,4s)-4-(N-methylacetamido)cyclohexyl)-2H-indazole-5-carboxamide]	268 nM	5.1 nM
COc1cc2nn([C@H]3CC[C@@H](N(C)C(C)=O)CC3)cc2cc1C(=O)Nc1cnn2cnccc12 [Example 24, 6-Methoxy-2-((1s,4s)-4-(N-methylacetamido)cyclohexyl)-N-(pyrazolo[1,5-c]pyrimidin-3-yl)-2H-indazole-5-carboxamide]	668 nM	83.1 nM
